Results: patent publication US9550782B2, “Compounds and methods for treating diabetes” (Medivation Technologies, Inc., priority 2011, dated 2017)
Values joined by “and” are separate entries in the source; they are usually repeats but may differ in a detail not shown here. Identical values can stand only once.

Columns and labels:
[1] = molecular target: T1, human recombinant adrenergic α2B receptor (Homo sapiens, UniProt P18089); experiment: Radioligand binding, adrenergic α2B ([3H]Rauwolscine); conditions: for Percentage inhibition of ligand binding, Adrenergic α2B (0.03 μM): compound at 0.03 μM; for Percentage inhibition of ligand binding, Adrenergic α2B: 0.03 μM compound
T1 construct: expressed in transfected cells; host or cells: CHO-K1
T1 sequence (P18089 1-450): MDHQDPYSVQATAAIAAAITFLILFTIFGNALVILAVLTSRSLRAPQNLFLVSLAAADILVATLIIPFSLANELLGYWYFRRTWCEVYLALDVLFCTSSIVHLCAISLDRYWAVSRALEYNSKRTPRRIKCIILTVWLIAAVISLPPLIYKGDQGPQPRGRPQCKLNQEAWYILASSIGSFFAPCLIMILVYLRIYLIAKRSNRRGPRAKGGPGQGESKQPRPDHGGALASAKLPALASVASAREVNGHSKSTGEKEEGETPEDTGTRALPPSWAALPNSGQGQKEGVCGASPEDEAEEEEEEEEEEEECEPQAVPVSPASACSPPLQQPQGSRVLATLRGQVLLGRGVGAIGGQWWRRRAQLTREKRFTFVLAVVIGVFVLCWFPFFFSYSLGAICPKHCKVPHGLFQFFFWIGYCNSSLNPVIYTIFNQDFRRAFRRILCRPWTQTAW
Procedure: To evaluate in radioligand binding assays the activity of compounds of the invention, human recombinant adrenergic α2B receptor expressed in Chinese hamster ovary (CHO) K1 cells (Uhlen, S. et al, Eur. J. Pharmacol. 343(1):93, 1998) in a modified Tris-HCl buffer (50 mM Tris-HCl, pH 7.4, 12.5 mM MgCl2, 1 mM EDTA, 0.2% BSA) was used. Compounds of the invention were incubated with 2.5 nM [3H]Rauwolscine for 60 min at 25° C. Non-specific binding was estimated in the presence of 10 μM Prazosin. Receptor proteins were filtered and washed, the filters were then counted to determine [3H]Rauwolscine specifically bound. […] Compounds of the invention were tested in this biochemical assay and percent inhibition of specific binding was determined. Biochemical assay results are presented as the percent inhibition of specific binding in Table B1.

[2] = molecular target: T2, rat adrenergic α1B receptor (Rattus norvegicus, UniProt P15823); experiment: Radioligand binding, adrenergic α1B ([3H]Prazosin); set-up: species or system Wistar Rat; conditions: for Percentage inhibition of ligand binding, Adrenergic α1B (0.1 μM): compound at 0.1 μM; for Percentage inhibition of ligand binding, Adrenergic α1B: 0.1 μM compound
T2 construct: rat adrenergic α1B receptor obtained from Wistar Rat liver; from tissue; host or cells: Wistar rat liver
T2 sequence (P15823 1-515): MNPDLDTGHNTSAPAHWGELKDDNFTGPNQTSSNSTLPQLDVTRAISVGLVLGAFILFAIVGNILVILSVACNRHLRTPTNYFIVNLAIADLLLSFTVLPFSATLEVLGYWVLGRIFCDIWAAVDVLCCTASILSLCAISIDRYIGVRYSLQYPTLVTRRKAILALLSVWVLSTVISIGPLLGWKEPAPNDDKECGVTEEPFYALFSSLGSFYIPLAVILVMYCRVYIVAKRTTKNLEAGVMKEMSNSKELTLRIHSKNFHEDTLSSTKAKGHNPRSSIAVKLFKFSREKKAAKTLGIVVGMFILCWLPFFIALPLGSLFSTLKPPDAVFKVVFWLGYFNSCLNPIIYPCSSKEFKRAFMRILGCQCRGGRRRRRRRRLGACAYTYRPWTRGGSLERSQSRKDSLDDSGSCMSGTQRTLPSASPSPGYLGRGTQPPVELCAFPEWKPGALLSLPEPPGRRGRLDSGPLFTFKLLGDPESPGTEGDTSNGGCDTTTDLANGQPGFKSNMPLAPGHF
Procedure: To evaluate in radioligand binding assays the activity of compounds of the invention, rat adrenergic α1B receptor obtained from Wistar Rat liver (Garcia-S'ainz, J. et al, Biochem. Biophys. Res. Commun. 186:760, 1992; Michel, A. et al, Br. J. Pharmacol. 98:883, 1989) in a modified Tris-HCl buffer (50 mM Tris-HCl buffer, pH 7.4, 0.5 mM EDTA) was used. Compounds of the invention were incubated with 0.25 nM [^3H]Prazosin for 60 min at 25° C. Non-specific binding was estimated in the presence of 10 μM phentolamine. Receptor proteins were filtered and washed, the filters were then counted to determine [^3H]Prazosin specifically bound. […] Compounds of the invention were tested in this biochemical assay and percent inhibition of specific binding was determined. Biochemical assay results are presented as the percent inhibition of specific binding in Table B1.

[3] = molecular target: T3, human recombinant adrenergic α2A receptor (Homo sapiens, UniProt P08913); experiment: Radioligand binding, adrenergic α2A ([3H]MK-912); conditions: [3H]MK-912, repeat datapoints each shown; for Percentage inhibition of ligand binding, Adrenergic α2A (0.1 μM): compound at 0.1 μM
T3 construct: expressed in transfected cells; host or cells: insect Sf9 cells
T3 sequence (P08913 1-465): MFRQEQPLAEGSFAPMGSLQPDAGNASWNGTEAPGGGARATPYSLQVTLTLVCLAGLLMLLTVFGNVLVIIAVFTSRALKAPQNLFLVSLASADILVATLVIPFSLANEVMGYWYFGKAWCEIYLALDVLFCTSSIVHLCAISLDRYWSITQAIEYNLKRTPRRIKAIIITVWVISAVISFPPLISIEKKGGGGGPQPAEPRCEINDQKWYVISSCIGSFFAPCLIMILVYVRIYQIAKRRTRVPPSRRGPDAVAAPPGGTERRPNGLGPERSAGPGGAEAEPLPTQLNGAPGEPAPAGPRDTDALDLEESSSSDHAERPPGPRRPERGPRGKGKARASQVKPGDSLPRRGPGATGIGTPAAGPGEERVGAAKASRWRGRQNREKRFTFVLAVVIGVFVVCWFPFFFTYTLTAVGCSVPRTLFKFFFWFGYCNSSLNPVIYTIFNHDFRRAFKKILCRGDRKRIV
Procedure: To evaluate in radioligand binding assays the activity of compounds of the invention, human recombinant adrenergic α2A receptor expressed in insect Sf9 cells (Uhlen, S. et al, J. Pharmacol. Exp. Ther. 271:1558, 1994) in a modified Tris-HCl buffer (50 mM Tris-HCl, pH 7.4, 12.5 mM MgCl2, 2 mM EDTA) was used. Compounds of invention were incubated with 1 nM [^3H]MK-912 for 60 min at 25° C. MK912 is (2S-trans)-1,3,4,5′,6,6′,7,12b-octahydro-1′,3′-dimethyl-spiro[2H-benzofuro[2,3-a]quinolizine-2,4′(1′H)-pyrimidin]-2′(3′H)-one hydrochloride. Non-specific binding was estimated in the presence of 10 μM WB-4101 (2-(2,6-Dimethoxyphenoxyethyl)aminomethyl-1,4-benzodioxane hydrochloride). Receptor proteins were filtered and washed, the filters were then counted to determine [^3H]MK-912 specifically bound. […] Compounds of the invention were tested in this biochemical assay and percent inhibition of specific binding was determined. Biochemical assay results are presented as the percent inhibition of specific binding in Table B1.

[4] = repeat datapoints each shown, 0.03 µM
[5] = repeat datapoints each shown, 0.1 µM

| Percentage inhibition of ligand binding, Adrenergic α2B (0.03 μM) [1, 4] | Percentage inhibition of ligand binding, Adrenergic α1B (0.1 μM) [2, 5] | Percentage inhibition of ligand binding, Adrenergic α2A (0.1 μM) [3] | also measured | SMILES |
| --- | --- | --- | --- | --- |
| 77% | 61% | 11% | – | Cc1ccc2c(c1)c1c(n2CC(O)c2ccncc2)CC2CCCCN2C1 (racemic) [75a] |
| 43% | 16% | 5% | – | Cc1ccc2c(c1)c1c(n2CC(O)c2ccncc2)CC2CCCCN2C1 (racemic) [75b] |
| 11% | 59% | −2% | – | Cc1ccc2c(c1)c1c(n2CC(O)c2ccncc2)CC2CCCCN2C1 (racemic) [75c] |
| 102% | 26% | 49% | – | Cc1ccc2c(c1)c1c(n2CC(O)c2ccncc2)CC2CCCCN2C1 (racemic) [75d] |
| 99% and 103% | 52% and 57% | 19% and 24% | Percentage inhibition of ligand binding, Adrenergic α2B (0.1 μM) ([1]; compound at 0.1 μM, repeat datapoints each shown, 0.1 µM): 104%; Percentage inhibition of ligand binding, Adrenergic α1B (0.03 μM) ([2]; compound at 0.03 μM, repeat datapoints each shown): 25%; Percentage inhibition of ligand binding, Adrenergic α2A (0.03 μM) ([3]; compound at 0.03 μM): 5% | CN1CCc2c(c3cc(Cl)ccc3n2CC(O)c2ccncc2)C1 (single isomer, unassigned) [4a] |
| 46% | 58% | 7% | – | CN1CCc2c(c3cc(Cl)ccc3n2CC(O)c2ccncc2)C1 (single isomer, unassigned) [4b] |
| 59% | 28% | 1% | – | CN1CCc2c(c3cc(Cl)ccc3n2CC(O)c2cccnc2)C1 (single isomer, unassigned) [7a] |
| 74% | 37% | 25% | – | CN1CCc2c(c3cc(Cl)ccc3n2CC(O)c2cccnc2)C1 (single isomer, unassigned) [7b] |
| −2% | 5% | −1% | – | Cc1ccc2c(c1)c1c(n2CC(O)c2cccnc2)CCN(CCO)C1 (single isomer, unassigned) [21a] |
| 1% | −2% | −3% | – | Cc1ccc2c(c1)c1c(n2CC(O)c2cccnc2)CCN(CCO)C1 (single isomer, unassigned) [21b] |
| 22% | 19% | 16% | – | Cc1ccc2c(c1)c1c(n2CC(O)c2ccccn2)CN(C)CC1 (single isomer, unassigned) [22a] |
| 30% | 9% | 0% | – | Cc1ccc2c(c1)c1c(n2CC(O)c2ccccn2)CN(C)CC1 (single isomer, unassigned) [22b] |
| 63% | – | 8% | Percentage inhibition of ligand binding, Adrenergic α1B (0.1 μM) ([2]; repeat datapoints each shown): 8% | Cc1ccc2c(c1)c1c(n2CC(C)(O)c2cccnc2)CCNC1 (single isomer, unassigned) [24a] |
| 29% | – | 15% | Percentage inhibition of ligand binding, Adrenergic α1B (0.1 μM) ([2]; repeat datapoints each shown): 8% | Cc1ccc2c(c1)c1c(n2CC(C)(O)c2cccnc2)CCNC1 (single isomer, unassigned) [24b] |
| – | – | – | Percentage inhibition of ligand binding, Adrenergic α2B ([1]; 0.03 µM): 104%; Percentage inhibition of ligand binding, Adrenergic α1B ([2]; 0.1 µM): 94% | Cc1ccc(CCn2c3c(c4cc(Cl)cnc42)C2CCCN2CC3)cn1 (single isomer, unassigned) [137a] |
| – | – | – | Percentage inhibition of ligand binding, Adrenergic α2B ([1]; 0.03 µM): 37%; Percentage inhibition of ligand binding, Adrenergic α1B ([2]; 0.1 µM): −2% | Cc1cnc2c(c1)c1c(n2CC(N)c2ccc(C#N)cc2)CCN(C)C1 (single isomer, unassigned) [159a] |
| – | – | – | Percentage inhibition of ligand binding, Adrenergic α2B [1]: 71%; Percentage inhibition of ligand binding, Adrenergic α1B [2]: 68% | Cc1ccc2c(c1)c1c(n2CC(O)c2ccc(C#N)cc2)CCN(C)C1 (centres unmarked) [142a] |
| – | – | – | Percentage inhibition of ligand binding, Adrenergic α2B ([1]; 0.03 µM): −2%; Percentage inhibition of ligand binding, Adrenergic α1B ([2]; 0.1 µM): 37% | Cc1ccc2c(c1)c1c(n2CC(C)(O)c2ccc(C)nc2)CN(C)CC1 (centres unmarked) [196b] |
